# Key:
# Huh-7 cells = assay: Cell colony forming assay, Huh-7; format: cell-based; conditions: Huh-7, 1 μM and 3 μM for 12 hours, 7 to 14 days; compared to Y102 or SNS-032
# Description: (§1) To examine the anticancer efficacy of Y106 and Y108 in vitro, a cell colony formation assay was performed in hepatocellular carcinoma cell lines Huh-7 and Hep3B cells.
# (§2) 500 cells were seeded into 6-well plates, and then treated with Y102, Y106,Y108, or SNS-032 at 1 μM and 3 μM for 12 hours, the medium was then replaced with fresh medium, and after 7 to 14 days, the cells were stained with 20% methanol+0.5% Crystal Violet for colony staining, and the number of cells was counted for quantitative analysis.
# Hep3B cells = assay: Cell colony forming assay, Hep3B; format: cell-based; conditions: 1 μM and 3 μM for 12 hours, 7 to 14 days, compared to Y102 or SNS-032
# Description: as §1, §2
# [1] = Plasma metabolic stability assay (human plasma); conditions: for half-life at 5 μM: human, plasma; for plasma stability (in words): summary of Table 1, 'in each group'
# Description: (§3) DMSO was used as a diluent to prepare stock solutions of a test substance and a positive control at a concentration of 10 mM. The positive control stock solution was then diluted with 70% acetonitrile to a working concentration of 0.2 mM, and then the test substance stock solution was diluted with 70% acetonitrile to a working concentration of 1 mM. A quench reagent consisted of acetonitrile containing tolbutamide and propranolol (provided as an internal standard).
# (§4) Positive control and test substance working solutions were spiked into plasma at a concentration of 1 μM and 5 μM, respectively. A 0-min sample was prepared by adding an 80 μL aliquot of each incubation mixture to 320 μL of the quench reagent to precipitate proteins. The mixture was incubated in a water bath at 37° C. with gentle shaking. Aliquots of 80 μL of each mixture were removed and placed in a clean 96-well plate containing 320 μL of the quench reagent to precipitate proteins at 15, 30, 45, and 60 min and centrifuged (5000×g, 15 minutes). 100 μL of the supernatant was placed in a 96-well assay plate to which 200 μL of ultrapure water had been added in advance, and analyzed by LC-MS/MS.
# [2] = tested on: Huh-7 cells, hepatocellular carcinoma cell line; assay: Anticancer efficacy in mouse model transplanted with Huh-7 cells; format: in vivo, nude mice; conditions: Huh-7 xenograft; for changes in cancer growth: 20 mg/kg oral (SNS-032 intraperitoneal), five times a week for two weeks, compared to Y102 and SNS-032 groups; for weight of the extracted cancer: day 14
# Description: To evaluate in vivo efficacy, 1×10^7 Huh-7 cells were transplanted into the right calves of nude mice to form cancer tissue, and then the anticancer efficacy of the new compositions Y106 and Y108 was compared with that of an existing CDK inhibitor Y102 or SNS-032.
# The dose was the same for all mice (20 mg/kg), the vehicle, Y102, Y106, and Y108 were administered orally, and only SNS-032 was administered intraperitoneally. These were administered five times a week for two weeks, the size was measured twice a week using calipers to measure the changes in cancer growth and the mouse body weight for 14 days, and on day 14, the cancer tissue was removed to confirm the size and weight thereof.
# [3] = tested on: Hep3B cells, hepatocellular carcinoma cell line; assay: Anticancer efficacy in mouse model transplanted with Hep3B cells; format: in vivo, nude mice; conditions: Hep3B xenograft; for changes in cancer growth: 20 mg/kg oral (SNS-032 intraperitoneal), compared to Y102 and SNS-032 groups; for changes in cancer growth / changes in mouse body weight: 27 days; for changes in mouse body weight / weight of the extracted cancer: 20 mg/kg; for weight of the extracted cancer: day 27
# Description: To evaluate in vivo efficacy using Hep3B cells, another hepatocellular carcinoma cell line, 3×10^6 Hep3B cells were transplanted into the right calves of nude mice to form cancer tissue, and then the anticancer efficacy of the new compositions Y106 and Y108 was compared with that of an existing CDK inhibitor Y102 or SNS-032.
# The dosage, administration schedule, and administration route were applied in the same manner as in the method performed in the mouse model transplanted with Huh-7 cells in Example 3. After administration of the new compositions and the existing CDK inhibitors, changes in cancer growth and mouse body weight were measured for 27 days, and then on day 27, the cancer tissues were removed to confirm the size and weight thereof.
# [4] = Plasma metabolic stability assay (mouse plasma)
# Description: as §3, §4
# [5] = tested on: A549 cells, non-small cell lung cancer cell line; assay: Anticancer efficacy in mouse model transplanted with A549 cells; format: in vivo, nude mice; conditions: A549 xenograft; for changes in cancer growth: 20 mg/kg oral (SNS-032 intraperitoneal), administered for five days, compared to Y102 and SNS-032 groups; for changes in cancer growth / changes in mouse body weight: 25 days; for changes in mouse body weight / weight of the extracted cancer: 20 mg/kg; for weight of the extracted cancer: day 25
# Description: To evaluate in vivo efficacy in a mouse model transplanted with A549 cells, a non-small cell lung cancer cell line, 1×10^6 A549 cells were transplanted into the right calves of nude mice to form cancer tissue, and then the anticancer efficacy of the new compositions Y106 and Y108 was compared with that of an existing CDK inhibitor Y102 or SNS-032.
# The dose was the same for all mice (20 mg/kg), the vehicle, Y102, Y106, and Y108 were administered orally, and only SNS-032 was administered intraperitoneally. These were administered for five days, the size was measured twice a week using calipers to measure the changes in cancer growth and the mouse body weight for 25 days, and on day 25, the cancer tissue was removed to confirm the size and weight thereof.
# [6] = plasma
# Description: as §3, §4
# [7] = plasma; remark: listed apart in the source
# Description: as §3, §4
molecule,measurement,setting,value
"CC(C)(C)C(=O)OC[C@@H]1O[C@H](n2cnc(N)c3c(C(N)=O)c(Br)nc2-3)[C@@H](O)[C@@H]1OC(=O)C(C)(C)C [Compound Y108, (2S,3S,4S,5S)-5-(4-amino-6-bromo-5-carbamoyl-1H-pyrrolo[2,3-d]pyrimidin-1-yl)-4-hydroxy-2-((pivaloyloxy)methyl)tetrahydrofuran-3-yl pivalate]",colony formation,Huh-7 cells,remarkably reduced
same,colony formation,Hep3B cells,remarkably reduced
same,half-life at 5 μM,[1],700 ± 42.5 min
same,plasma stability (in words),[1],highest stability
same,changes in cancer growth,[2]; 14 days,significantly inhibited cancer growth
same,weight of the extracted cancer,[2]; 20 mg/kg,least amount of cancer tissue
same,changes in cancer growth,[3],inhibited cancer growth more effectively
same,changes in mouse body weight,[3],no significant difference
same,weight of the extracted cancer,[3],least amount of cancer tissue
same,half-life at 5 μM,[4],7.25 ± 0.01 min
same,changes in cancer growth,[5],inhibited cancer growth more clearly
same,changes in mouse body weight,[5],no significant difference
same,weight of the extracted cancer,[5],least amount of cancer tissue
Ibulocydine,T1/2(min) Human,[6],4.57 ± 0.09 min
same,T1/2(min) Mouse,[7],2.85 ± 0.02 min
"CC1CC(OC(=O)C(O)c2ccccc2)CC(C)(C)N1C (stereo not drawn) [Eucatropin, reference compound]",half-life at 5 μM,[1],16.7 ± 0.38 min
same,half-life at 5 μM,[4],32.6 ± 4.81 min
"CC(C)C(=O)OC[C@@H]1O[C@H](n2cnc(N)c3c(C(N)=O)c(Br)nc2-3)[C@@H](O)[C@@H]1OC(=O)C(C)C [Compound Y105, (2S,3S,4S,5S)-5-(4-amino-6-bromo-5-carbamoyl-1H-pyrrolo[2,3-d]pyrimidin-1-yl)-4-hydroxy-2-((isobutyryloxy)methyl)tetrahydrofuran-3-yl isobutyrate]",half-life at 5 μM,[1],20.5 ± 0.34 min
same,half-life at 5 μM,[4],2.67 ± 0.2 min
"CCC(C)(C)C(=O)OC[C@@H]1O[C@H](n2cnc(N)c3c(C(N)=O)c(Br)nc2-3)[C@@H](O)[C@@H]1OC(=O)C(C)(C)CC [Compound Y106, (2S,3S,4S,5S)-5-(4-amino-6-bromo-5-carbamoyl-1H-pyrrolo[2,3-d]pyrimidin-1-yl)-2-(((2,2-dimethylbutanoyl)oxy)methyl)-4-hydroxytetrahydrofuran-3-yl 2,2-dimethylbutanoate]",colony formation,Huh-7 cells,remarkably reduced
same,colony formation,Hep3B cells,remarkably reduced
same,half-life at 5 μM,[1],> 720 min
same,plasma stability (in words),[1],highest stability
same,changes in cancer growth,[2]; 14 days,significantly inhibited cancer growth
same,weight of the extracted cancer,[2]; 20 mg/kg,least amount of cancer tissue
same,changes in cancer growth,[3],inhibited cancer growth more effectively
same,changes in mouse body weight,[3],no significant difference
same,weight of the extracted cancer,[3],least amount of cancer tissue
same,half-life at 5 μM,[4],7.1 ± 0.07 min
same,changes in cancer growth,[5],inhibited cancer growth more clearly
same,changes in mouse body weight,[5],no significant difference
same,weight of the extracted cancer,[5],least amount of cancer tissue
"CCC(C)(C)C(=O)OC[C@@H]1O[C@H](n2cnc(N)c3c(C(N)=O)c(Br)nc2-3)[C@@H](O)[C@@H]1O [Compound Y107, ((2S,3S,4S,5S)-5-(4-amino-6-bromo-5-carbamoyl-1H-pyrrolo[2,3-d]pyrimidin-1-yl)-3,4-dihydroxytetrahydrofuran-2-yl)methyl 2,2-dimethylbutanoate]",half-life at 5 μM,[1],26.6 ± 4.33 min
same,half-life at 5 μM,[4],6.91 ± 0.11 min
"NC(=O)c1c(Br)nc2n([C@H]3O[C@@H](COC(=O)C45CC6CC(CC(C6)C4)C5)C(O)[C@H]3O)cnc(N)c1-2 (stereo partly drawn) [Compound Y109, ((2S,3S,4S,5S)-5-(4-amino-6-bromo-5-carbamoyl-1H-pyrrolo[2,3-d]pyrimidin-1-yl)-3,4-dihydroxytetrahydrofuran-2-yl)methyl(3S,5S,7S)-adamantane-1-carboxylate]",half-life at 5 μM,[1],280 ± 3.06 min
same,half-life at 5 μM,[4],7.77 ± 0.13 min
"CC(C)(C)c1cnc(CSc2cnc(NC(=O)C3CCNCC3)s2)o1 [SNS-032, reference compound]",mouse body weight,"[2]; 20 mg/kg, 14 days",slightly reduced
same,changes in mouse body weight,[3],no significant difference
same,changes in mouse body weight,[5],no significant difference

# — patent US20250313588A1, “NOVEL PYRROLOPYRIMIDINONE CARBOXAMIDE COMPOUND FOR INHIBITING CDK, STEREOISOMER THEREOF OR PHARMACEUTICALLY ACCEPTABLE SALT THEREOF, AND PHARMACEUTICAL COMPOSITION FOR TREATING CANCER, COMPRISING SAME AS ACTIVE INGREDIENT” (Seoul National University R&DB Foundation, priority 2022, published 2025)
